This is an account of results in article PMC6060874, “Alanine scan of sialorphin and its hybrids with opiorphin: synthesis, molecular modelling and effect on enkephalins degradation” (Amino Acids, 2018).

For series [1], the system named is NEP enzyme extracted from porcine kidney. Kind of series: Degradation of Met-enkephalin incubated with NEP alone (without inhibitor). The series is classed as in vitro ADME. Conditions: printed value is 1000 × k, Met-enkephalin 0.0413 mM, NEP 5.687 nM, Tris–HCl 50 mM pH 7.4, 37 °C, 0–120 min, RP-HPLC, mean ± SEM, triplicate. As for the experimental part:
(§1) The degradation studies were performed using the NEP enzyme extracted from porcine kidney, acquired from Merck (Warsaw, Poland). Solutions of Met-enkephalin, NEP and inhibitors were prepared by dissolving them in a Tris–HCl buffer (50 mM, pH 7.4). In investigated samples, the concentrations of Met-enkephalin, inhibitors and NEP were, respectively, 0.0413 mM, 0.156 mM and 5.687 nM. The reaction was initiated by addition of enzyme to a solution-containing Met-enkephalin and inhibitor. The samples consisting of the enzyme, Met-enkephalin and inhibitors were incubated over 0, 30, 60, 90, 120 min at 37 °C in a final volume of 300 μL. The reaction was stopped at a predetermined time by placing the tube on ice and acidifying with 30 μL of a 1 M aqueous HCl solution. The aliquots were centrifuged at 14,500 rpm for 20 min. The supernatants were filtered through Millipore Millex-GV syringe filters with 0.22 μm pores (Merck, Warsaw, Poland) and analysed by RP-HPLC on a Phenomenex Gemini-NX C18 column (5 μm, 4.6 mm × 150 mm) using a linear gradient of 3–50% of [B] for 8 min at a flow rate of 2.5 ml/min. Two solvent systems were used: 0.1% TFA in water [A] and 0.1% TFA in acetonitrile [B]. The rate constants of degradation (k) and degradation half-lives (t1/2) were calculated as described elsewhere (Kamysz et al. [2016]; Perlikowska et al. [2012]). All measurements were performed in triplicate. […]

Another series has as its system NEP. The series is described as above. In kind it is in vitro ADME, porcine. Conditions: pig, NEP enzyme extracted from porcine kidney, Met-enkephalin 0.0413 mM, NEP 5.687 nM, Tris–HCl 50 mM pH 7.4, 37 °C, 0–120 min, RP-HPLC, mean ± SEM, triplicate, read-out: t1/2, half-life of Met-enkephalin incubated with NEP alone. As for the experimental part: as §1

For `CSCC[C@H](NC(=O)[C@H](Cc1ccccc1)NC(=O)CNC(=O)CNC(=O)[C@@H](N)Cc1ccc(O)cc1)C(=O)O` [Met-enkephalin, Met-enkephalin (Tyr–Gly–Gly–Phe–Met)], in series [1], the “1000 × k, degradation rate of Met-enkephalin incubated with NEP alone” value was found to be 25.3 ± 1.0 min⁻¹. The half-life in the series with NEP worked out at 27 ± 1 min.
